From ChEMBL document CHEMBL3102797, “Kelsoenethiol and dikelsoenyl ether, two unique kelsoane-type sesquiterpenes, from the Formosan soft coral Nephthea erecta” (2014)
Values after ≈ are worked out from the molar mass of the structure shown.

How the values were obtained:
Type in all cases: functional
Conditions in all cases: read-out: ED50 (the source's name)
[1] = test system: P388; experiment: Cytotoxicity against mouse P388 cells
[2] = test system: A549; experiment: Cytotoxicity against human A549 cells
[3] = test system: HT-29; experiment: Cytotoxicity against human HT-29 cells

**Q.** `CO[C@H](C(=O)[C@@H](O)[C@@H](C)O)[C@@H]1Cc2cc3cc(O[C@H]4C[C@@H](O[C@@H]5C[C@@H](O)[C@H](O)[C@@H](C)O5)[C@H](O)[C@@H](C)O4)c(C)c(O)c3c(O)c2C(=O)[C@H]1O[C@H]1C[C@@H](O[C@@H]2C[C@@H](O)[C@@H](O[C@@H]3C[C@](C)(O)[C@H](O)[C@@H](C)O3)[C@@H](C)O2)[C@H](O)[C@@H](C)O1` [PLICAMYCIN] was tested. Which EC50 [1] did it give?
**A.** 0.06 µg/mL (≈ 0.0553 µM)

**Q.** What about the EC50 [2] of the same molecule?
**A.** 0.07 µg/mL (≈ 0.0645 µM)

**Q.** What about the EC50 [3] of the same molecule?
**A.** 0.08 µg/mL (≈ 0.0737 µM)

**Q.** Which EC50 [1] does the source give for `C/C(CS)=C1\[C@@H]2[C@H](C)CC[C@@H]2[C@@]2(C)CC[C@@H]12` (relative stereo) here?
**A.** 1.3 µg/mL (≈ 5.5 µM)

**Q.** And the EC50 [3]?
**A.** 1.8 µg/mL (≈ 7.61 µM)

**Q.** How did the EC50 [1] turn out when `C=C(C)[C@H]1[C@@H]2[C@H](C)CC[C@@H]2[C@@]2(C)CC[C@@H]12` was run?
**A.** 2.8 µg/mL (≈ 13.7 µM)

**Q.** What about the EC50 [3] of the same molecule?
**A.** 3.2 µg/mL (≈ 15.7 µM)
